Measurements as given in PMC7756341, “Liposomal FRET Assay Identifies Potent Drug‐Like Inhibitors of the Ceramide Transport Protein (CERT)” (Chemistry (Weinheim an Der Bergstrasse, Germany), 2020).
Values joined by “and” are separate entries in the source; they are usually repeats but may differ in a detail not shown here. Identical values can stand only once.

System: HeLa cells
Test: Sphingolipid content of treated HeLa cells by quantitative mass spectrometry
Assay type: cell-based
Conditions: for Cer16 / Cer18 / Cer20 / Cer22 / Cer24 / Cer24:1 / Cer total / S1P / SM16 / SM18 / SM20 / SM22 / SM24 / SM24:1 / SM total / Sph / ratio total SM/Cer: HeLa, 42h, single replicates; for Cer16 / Cer18 / Cer20 / Cer22 / Cer24 / Cer24:1 / Cer total / S1P / SM16 / SM18 / SM20 / SM22 / SM24 / SM24:1 / SM total / Sph: 500.000 cells per sample
Description: 5.2 Cellular experiment for lipidomic analysis
Hela cells were cultured in six well plates (177000 cells per well) under standard growth conditions (DMEM with 4mM L-glutamine, 10% FBS, 1% Penicillin-Streptomycin; CO2 incubator with […]
37°C, 5% CO2). […]
After incubation, […]
the adherent cells were washed twice with ice-cold PBS and harvested by treatment with trypsin.
Cells were counted using a Countess II cell counter ( Invitrogen) and adjusted to 500.000 cells per sample. Each sample was then treated as described below.
6. Details for experimental lipidomics
Cells were subjected to lipid extraction using 1.5 mL methanol/chloroform (2:1, v:v) as described. The extraction solvent contained C17-ceramide (Cer17) and C16 -d31-sphingomyelin (d31-SM16) (both Avanti Polar Lipids, Alabaster, USA) as internal standards. Chromatographic separations were achieved on a 1260 Infinity HPLC (Agilent Technologies, Waldbronn, Germany) equipped with a Poroshell 120 EC-C8 column (3.0 × 150 mm, 2.7 µm; Agilent Technologies). A mobile phase system consisting of water (solvent A) and acetonitrile/methanol (1:1, v:v; solvent B), both acidified with 0.1% formic acid, was used for gradient elution at an initial composition of 40:60 (A:B, v:v) and a flow rate of 0.5 mL/min. MS/MS analyses were carried out using a 6490 triple-quadrupole mass spectrometer (Agilent Technologies) operating in the positive electrospray ionization mode (ESI+). The following ion source parameters were set: sheath gas temperature, 375 °C; sheath gas flow, 12 L/min of nitrogen; nebulizer pressure, 30 psi; drying gas temperature, 200 °C; drying gas flow, 15 L/min of nitrogen; capillary voltage, 4000 V; nozzle voltage, 1500 V; iFunnel high pressure RF voltage, 150 V and iFunnel low pressure RF voltage, 60 V. The following mass transitions were recorded (collision energies of 25 eV for all transitions): ceramides: m/z […]
with MassHunter Software (Agilent Technologies). Significance of differences between two samples was calculated by student’s t -test. Asterisks indicate significant differences between treated and untreated samples: * p<0.05; ** p<0.01; *** p<0.005.
Table S1. Sphingolipid content of treated cells.
(1 picture or pasted object on this page, not shown here)

## CCCCCCCCCCCC(=O)NC(CO)CC(O)c1ccccc1 (centres unmarked) [HPA-12, N-(3Hydroxy-1-hydroxymethyl-3-phenylpropyl)-dodecamide]
1 µM
  Cer16: 48,20 pmol/sample and 45,94 pmol/sample and 44,92 pmol/sample
  Cer18: 3,35 pmol/sample and 2,85 pmol/sample and 3,38 pmol/sample
  Cer20: 1,15 pmol/sample and 0,88 pmol/sample and 1,18 pmol/sample
  Cer22: 8,47 pmol/sample and 7,59 pmol/sample and 8,53 pmol/sample
  Cer24: 25,47 pmol/sample and 26,70 pmol/sample and 25,58 pmol/sample
  Cer24:1: 64,01 pmol/sample and 60,79 pmol/sample and 68,53 pmol/sample
  Cer total: 150,65 pmol/sample and 143,74 pmol/sample and 153,13 pmol/sample
  S1P: 1,34 pmol/sample and 1,27 pmol/sample and 1,52 pmol/sample
  SM16: 1695,91 pmol/sample and 1668,53 pmol/sample and 1609,69 pmol/sample
  SM18: 47,55 pmol/sample and 44,39 pmol/sample and 46,43 pmol/sample
  SM20: 15,20 pmol/sample and 14,34 pmol/sample and 14,30 pmol/sample
  SM22: 91,42 pmol/sample and 86,76 pmol/sample and 85,97 pmol/sample
  SM24: 147,79 pmol/sample and 134,40 pmol/sample and 140,17 pmol/sample
  SM24:1: 708,14 pmol/sample and 660,22 pmol/sample and 659,25 pmol/sample
  SM total: 2706,02 pmol/sample and 2608,64 pmol/sample and 2555,82 pmol/sample
  Sph: 3,87 pmol/sample and 3,57 pmol/sample and 3,94 pmol/sample
  ratio total SM/Cer: 17,7 and 17,3 and 17,8
2.5 µM
  Cer16: 45,72 pmol/sample and 45,34 pmol/sample and 45,94 pmol/sample
  Cer18: 2,82 pmol/sample and 3,05 pmol/sample and 2,77 pmol/sample
  Cer20: 0,99 pmol/sample and 0,90 pmol/sample and 0,94 pmol/sample
  Cer22: 8,93 pmol/sample (2×) and 7,27 pmol/sample
  Cer24: 29,39 pmol/sample and 22,20 pmol/sample and 31,70 pmol/sample
  Cer24:1: 64,09 pmol/sample and 55,48 pmol/sample and 66,75 pmol/sample
  Cer total: 151,94 pmol/sample and 134,23 pmol/sample and 157,03 pmol/sample
  S1P: 1,60 pmol/sample and 1,73 pmol/sample and 1,58 pmol/sample
  SM16: 1489,44 pmol/sample and 1440,97 pmol/sample and 1448,69 pmol/sample
  SM18: 53,85 pmol/sample and 43,84 pmol/sample and 45,37 pmol/sample
  SM20: 20,27 pmol/sample and 13,88 pmol/sample and 14,55 pmol/sample
  SM22: 75,95 pmol/sample and 76,48 pmol/sample and 75,20 pmol/sample
  SM24: 129,06 pmol/sample and 114,60 pmol/sample and 121,10 pmol/sample
  SM24:1: 524,32 pmol/sample and 581,92 pmol/sample and 555,40 pmol/sample
  SM total: 2229,23 pmol/sample and 2350,50 pmol/sample and 2245,18 pmol/sample
  Sph: 2,13 pmol/sample and 3,27 pmol/sample and 2,40 pmol/sample
  ratio total SM/Cer: 14,2 and 15,5 and 16,7
5 µM
  Cer16: 43,83 pmol/sample and 46,26 pmol/sample and 43,34 pmol/sample
  Cer18: 2,50 pmol/sample and 2,62 pmol/sample and 2,51 pmol/sample
  Cer20: 0,74 pmol/sample and 0,81 pmol/sample and 0,73 pmol/sample
  Cer22: 6,88 pmol/sample and 6,54 pmol/sample and 6,85 pmol/sample
  Cer24: 20,93 pmol/sample and 21,64 pmol/sample and 23,60 pmol/sample
  Cer24:1: 53,37 pmol/sample and 55,90 pmol/sample and 57,30 pmol/sample
  Cer total: 128,26 pmol/sample and 133,78 pmol/sample and 134,34 pmol/sample
  S1P: 1,43 pmol/sample and 1,97 pmol/sample and 1,45 pmol/sample
  SM16: 1306,31 pmol/sample and 1249,58 pmol/sample and 1356,77 pmol/sample
  SM18: 41,78 pmol/sample and 39,06 pmol/sample and 41,13 pmol/sample
  SM20: 12,76 pmol/sample and 12,48 pmol/sample and 12,54 pmol/sample
  SM22: 68,87 pmol/sample and 67,07 pmol/sample and 70,68 pmol/sample
  SM24: 101,53 pmol/sample and 101,48 pmol/sample and 113,95 pmol/sample
  SM24:1: 471,40 pmol/sample and 487,46 pmol/sample and 521,22 pmol/sample
  SM total: 2002,66 pmol/sample and 1957,13 pmol/sample and 2116,29 pmol/sample
  Sph: 3,33 pmol/sample and 3,81 pmol/sample and 3,47 pmol/sample
  ratio total SM/Cer: 15,6 and 14,6 and 15,8

## CC1=NN(c2ccc(C)c(C)c2)C(=O)/C1=N\Nc1cccc(-c2cccc(C(=O)O)c2)c1O [17C9, Eltrombopag]
HeLa cells
  effect on SM/Cer rate: dramatically increased
HeLa cells, 48 hours, serum-reduced medium
  effect on total sphingomyelin: no significant changes
1 µM
  Cer16: 34,40 pmol/sample and 29,98 pmol/sample and 31,42 pmol/sample
  Cer18: 3,09 pmol/sample and 3,68 pmol/sample and 2,62 pmol/sample
  Cer20: 0,85 pmol/sample and 3,45 pmol/sample and 0,80 pmol/sample
  Cer22: 6,25 pmol/sample and 5,55 pmol/sample and 6,14 pmol/sample
  Cer24: 18,45 pmol/sample and 16,72 pmol/sample and 19,49 pmol/sample
  Cer24:1: 39,87 pmol/sample and 35,52 pmol/sample and 38,79 pmol/sample
  Cer total: 102,91 pmol/sample and 96,34 pmol/sample and 97,82 pmol/sample
  S1P: 1,15 pmol/sample and 1,32 pmol/sample and 1,00 pmol/sample
  SM16: 1737,34 pmol/sample and 1866,45 pmol/sample and 1725,36 pmol/sample
  SM18: 50,83 pmol/sample and 50,55 pmol/sample and 45,45 pmol/sample
  SM20: 17,12 pmol/sample and 16,70 pmol/sample and 15,18 pmol/sample
  SM22: 108,33 pmol/sample and 106,97 pmol/sample and 93,72 pmol/sample
  SM24: 172,22 pmol/sample and 163,43 pmol/sample and 147,49 pmol/sample
  SM24:1: 788,48 pmol/sample and 772,38 pmol/sample and 712,32 pmol/sample
  SM total: 2874,32 pmol/sample and 2976,47 pmol/sample and 2739,52 pmol/sample
  Sph: 3,11 pmol/sample and 2,70 pmol/sample and 4,01 pmol/sample
  ratio total SM/Cer: 29,4 and 28,9 and 28,4
2.5 µM
  Cer16: 32,36 pmol/sample and 33,19 pmol/sample and 28,45 pmol/sample
  Cer18: 3,43 pmol/sample and 3,27 pmol/sample and 2,51 pmol/sample
  Cer20: 2,29 pmol/sample and 1,23 pmol/sample and 0,90 pmol/sample
  Cer22: 6,89 pmol/sample and 6,59 pmol/sample and 5,14 pmol/sample
  Cer24: 19,23 pmol/sample and 20,44 pmol/sample and 16,88 pmol/sample
  Cer24:1: 39,53 pmol/sample and 38,37 pmol/sample and 33,82 pmol/sample
  Cer total: 103,73 pmol/sample and 103,08 pmol/sample and 87,70 pmol/sample
  S1P: 1,23 pmol/sample and 1,05 pmol/sample and 1,02 pmol/sample
  SM16: 1702,42 pmol/sample and 1763,99 pmol/sample and 1597,48 pmol/sample
  SM18: 47,65 pmol/sample and 51,14 pmol/sample and 44,81 pmol/sample
  SM20: 15,77 pmol/sample and 16,69 pmol/sample and 14,30 pmol/sample
  SM22: 97,64 pmol/sample and 104,36 pmol/sample and 90,89 pmol/sample
  SM24: 148,54 pmol/sample and 158,37 pmol/sample and 140,98 pmol/sample
  SM24:1: 659,70 pmol/sample and 706,74 pmol/sample and 726,62 pmol/sample
  SM total: 2548,15 pmol/sample and 2718,76 pmol/sample and 2821,17 pmol/sample
  Sph: 4,57 pmol/sample and 3,32 pmol/sample and 3,82 pmol/sample
  ratio total SM/Cer: 29,1 and 26,2 and 27,4
5 µM
  Cer16: 29,49 pmol/sample and 35,89 pmol/sample and 33,40 pmol/sample
  Cer18: 2,38 pmol/sample and 3,05 pmol/sample and 2,58 pmol/sample
  Cer20: 0,79 pmol/sample and 0,94 pmol/sample and 0,73 pmol/sample
  Cer22: 4,97 pmol/sample and 6,52 pmol/sample and 6,08 pmol/sample
  Cer24: 18,36 pmol/sample and 21,85 pmol/sample and 21,93 pmol/sample
  Cer24:1: 34,90 pmol/sample and 40,79 pmol/sample and 38,77 pmol/sample
  Cer total: 90,90 pmol/sample and 109,04 pmol/sample and 103,49 pmol/sample
  S1P: 0,97 pmol/sample and 0,93 pmol/sample and 0,94 pmol/sample
  SM16: 1510,97 pmol/sample and 1730,88 pmol/sample and 1785,73 pmol/sample
  SM18: 45,08 pmol/sample and 52,99 pmol/sample and 49,27 pmol/sample
  SM20: 14,34 pmol/sample and 17,35 pmol/sample and 16,52 pmol/sample
  SM22: 86,79 pmol/sample and 107,23 pmol/sample and 102,55 pmol/sample
  SM24: 143,47 pmol/sample and 171,51 pmol/sample and 164,74 pmol/sample
  SM24:1: 606,54 pmol/sample and 703,57 pmol/sample and 702,64 pmol/sample
  SM total: 2407,20 pmol/sample and 2783,54 pmol/sample and 2821,45 pmol/sample
  Sph: 3,92 pmol/sample and 3,79 pmol/sample and 3,72 pmol/sample
  ratio total SM/Cer: 26,5 and 25,5 and 27,3
